Test results as given in article PMC7958344, “Development of Novel Inhibitors Targeting the D-Box of the DNA Binding Domain of Androgen Receptor” (International Journal of Molecular Sciences, 2021).

Assays:
full-length AR = target: T1, full-length AR (Homo sapiens, UniProt P10275); assay: Mammalian two-hybrid (M2H) AR dimerization assay in PC3 cells; assay type: cell-based; settings: result in words
T1 construct: Full-length AR cDNA were cloned using Polymerase Incomplete Primer Extension; expressed in transfected cells; host or cells: PC3 (transient co-transfection of pA-AR, pB-AR and PG5-NLuc)
T1 sequence (P10275 1-920): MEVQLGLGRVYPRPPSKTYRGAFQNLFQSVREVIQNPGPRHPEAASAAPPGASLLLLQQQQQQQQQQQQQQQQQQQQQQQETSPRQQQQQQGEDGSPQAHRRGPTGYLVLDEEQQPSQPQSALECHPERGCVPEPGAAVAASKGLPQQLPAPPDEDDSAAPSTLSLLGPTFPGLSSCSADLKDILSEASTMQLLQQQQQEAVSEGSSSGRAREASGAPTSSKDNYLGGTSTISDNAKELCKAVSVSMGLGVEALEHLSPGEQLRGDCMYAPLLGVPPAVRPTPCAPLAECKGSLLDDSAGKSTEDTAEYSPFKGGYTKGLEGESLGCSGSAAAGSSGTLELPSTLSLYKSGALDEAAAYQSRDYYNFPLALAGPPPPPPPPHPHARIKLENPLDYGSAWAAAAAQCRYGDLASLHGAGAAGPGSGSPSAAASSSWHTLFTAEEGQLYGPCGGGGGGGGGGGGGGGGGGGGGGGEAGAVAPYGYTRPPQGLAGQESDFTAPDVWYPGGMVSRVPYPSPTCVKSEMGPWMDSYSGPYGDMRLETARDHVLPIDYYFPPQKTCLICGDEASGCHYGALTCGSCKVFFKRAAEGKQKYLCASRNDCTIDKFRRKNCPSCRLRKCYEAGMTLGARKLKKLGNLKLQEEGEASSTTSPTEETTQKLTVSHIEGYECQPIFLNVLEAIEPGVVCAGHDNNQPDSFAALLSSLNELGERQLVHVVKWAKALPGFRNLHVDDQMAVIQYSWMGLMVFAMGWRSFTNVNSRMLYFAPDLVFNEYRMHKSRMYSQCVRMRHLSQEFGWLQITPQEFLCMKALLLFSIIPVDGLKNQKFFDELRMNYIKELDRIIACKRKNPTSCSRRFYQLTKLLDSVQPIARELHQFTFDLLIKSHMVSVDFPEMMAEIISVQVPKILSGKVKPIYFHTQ
Protocol: Next, the dimerization of full-length AR was assessed by a mammalian two-hybrid (M2H, [30]) assay, where target proteins were fused with Gal4-DBD or VP16 domains. […] High concentrations of VPC-17005 (>20 μM) were required for significant reduction in AR and AR-V7 homo-dimerization.
Figure 3 Anti-dimerization effects of VPC-17160 and VPC-17281 at 20 μM concentraction. PC3 cells were co-transfected with plasmids encoding pA-AR and pB-AR and pG5-NLuc-Gal4 specific reporter. Cells were treated with 0.1% DMSO control, VPC-17160, VPC-17281, or VPC-17005 followed by Nanoluciferase measurement. p < 0.05 (*), p < 0.01 (**) were considered statistically significant (two-tailed t-test). Two-tailed t-test for VPC-17005 vs. 17160 p < 0.05; VPC-17005 vs. VPC-17281 p < 0.05.
Full-length human AR (hARWT) was encoded on pcDNA3.1 expression plasmid. […]
LNCaP cells incorporating an AR2PB-eGFP reporter construct (2 × probasin) are previously described. eGFP and secreted PSA assays were performed as described. […] PC3_iV7_3TKNluc or PC3_iNluc cells were seeded in DMEM +5% CSS at 5000 cells/well for 24 h, followed by adding doxycycline/compounds (18 h) and luminescence measurement. LNCaP and 22rv1 cells were starved in RPMI + CSS (48 h) before cell viability tests using the same conditions as above, followed by 30 μL/well PrestoBlue™ Reagent (1 h) and fluorescence measurement (TECAN F200).

22rv1 cells = assay: Cell viability (PrestoBlue), 22rv1; assay type: cell-based; settings: for growth inhibition of 22rv1 cell line: result in words
Protocol: VPC-17160 and VPC-17281 were further evaluated for their potential to inhibit the growth of prostate cancer cell lines LNCaP (AR-FL dependent) and 22rv1 (AR-V7 dependent).
LNCaP cells incorporating an AR2PB-eGFP reporter construct (2 × probasin) are previously described. eGFP and secreted PSA assays were performed as described. The mammalian two-hybrid assay was performed in PC3 cells by co-transfection of 15 ng pA-AR or pB-AR plasmids, with 12.5 ng PG5-NLuc reporter. PC3_iV7_3TKNluc or PC3_iNluc cells were seeded in DMEM +5% CSS at 5000 cells/well for 24 h, followed by adding doxycycline/compounds (18 h) and luminescence measurement. LNCaP and 22rv1 cells were starved in RPMI + CSS (48 h) before cell viability tests using the same conditions as above, followed by 30 μL/well PrestoBlue™ Reagent (1 h) and fluorescence measurement (TECAN F200).

With `O=C(NCc1cccc2ccccc12)NCC(O)(c1cccs1)c1cccs1` [VPC-17160] the “reduction of dimerization at 20 μM” value (full-length AR) was “full reduction of dimerization” and the “growth inhibition of 22rv1 cell line” value (22rv1 cells) was “inhibited the growth”.

In the case of `CC(O)(CNC(=O)C=Cc1ccnc2ccccc12)c1ccsc1` (centres unmarked) [VPC-17281], the “reduction of dimerization at 20 μM” value (full-length AR) is reported as “full reduction of dimerization”, the IC50 (22rv1 cells; Homo sapiens, 22rv1 (AR-V7 dependent), read-out: IC50, cell growth) is reported as 10 µM and the “growth inhibition of 22rv1 cell line” value (22rv1 cells) is reported as “inhibited the growth”.
